Assay results: paper PMC6631462, “Quaternary Ammonium Leucine-Based Surfactants: The Effect of a Benzyl Group on Physicochemical Properties and Antimicrobial Activity” (Pharmaceutics, 2019)
Values joined by “and” are separate entries in the source; they are usually repeats but may differ in a detail not shown here. Equal values may be shown once. Read-outs that look alike come from different tables or passages of the source.

Assays:
erythrocytes = assay: Haemolytic assay; type: cell-based, mice; conditions: concentration causing 50% haemoglobin release from erythrocytes, mean ± SD
Experimental: (§1) Colorectal-carcinoma-derived epithelial Caco-2 cells (European Collection of Cell Cultures) and airway epithelial Calu-3 cells (American Type Culture Collection; ATCC) were cultured in DMEM supplemented with 10% of FBS and 1% of an antibiotic–antimycotic mixture. Erythrocytes were collected from mice blood. The cytotoxicity of the N-benzyl quaternary ammonium surfactants derived from leucine in comparison to the commercial BAC was studied by performing two cytotoxicity assays (MTS and LDH as indicators of metabolic activity and membrane integrity, respectively) and by a haemolytic assay. The assays were conducted as reported in our previous publications. EC50 values from the MTS assay (concentration of surfactant that causes 50% cell death) and the LDH assay (concentration of surfactants that causes 50% LDH release from cells), as well as HC50 values from the haemolytic assay (concentration of surfactants that causes 50% haemoglobin release from erythrocytes) were calculated using a nonlinear regression model (Prism version 5.0, GraphPad Inc., San Diego, CA, USA) as follows:(3) Y=BOTTOM+Top−Bottom/1+10^(LogEC50−x) Hill Slope where Top and Bottom are plateaux in the units of the Y axis.

[1] = Surface tension measurements (De Nouy ring tensiometry); type: physicochemical; conditions: for 10^6 Γmax (surface excess concentration): Gibbs equation from tensiometry; for 10^6 Γmax (surface excess concentration) / CMC / γCMC (surface tension at CMC): 25 °C; for 10^6 Γmax (surface excess concentration) / Amin (area per molecule at water–air interface): mean ± SD; for Amin (area per molecule at water–air interface): derived from Γmax; for CMC / γCMC (surface tension at CMC): ultrapure water, tensiometry, mean ± SD of three replicates
Experimental: Different concentrations for each surfactant were prepared by dissolving the compounds in ultrapure water. Their ability to decrease air–water surface tension was studied at 25 °C using a DCA-100 tensiometer (First Ten Angstrom, Portsmouth, VA, USA) according to the De Nouy ring method. Each recorded surface tension value was the mean of three consecutive measurements. The ‘breakpoint’ of the plot of surface tension versus concentration of surfactant was used to calculate the critical micelle concentration (CMC, i.e., the minimum concentration at which surfactants aggregate to form micelles) and the surface tension at CMC (γCMC). The “breakpoint” is the point of intersection of the two lines fitting the experimental data by a linear regression model (Prism version 5.0, GraphPad Inc., San Diego, CA, USA). Tensiometric measurements allowed for the calculation of an additional two parameters related to the surface behaviour of surfactants. The first is the ‘surface excess concentration’, Γmax, which is a measure of how many surfactant molecules are adsorbed at the air–water interface, which was calculated using the Gibbs equation:(1) Γmax=1/2.303 nRT (δγ/δlogC) where R is the gas constant (8.314 J/mol K); T is the absolute temperature (K); n is equal to 1 for single chain ionic surfactants displaying only one ionisable group; and dγ/d log C can be calculated from the slope of the straight section before the CMC in the plot of surface tension versus concentration of the surfactant.
The other parameter is the area occupied by a single molecule of surfactant at the water–air interface (As), and is derived from Γmax through the equation:(2) Amin= 10^18/NΓmax.
All analyses were performed in triplicate.

[2] = tested on: Staphylococcus aureus ATCC 25923; assay: Antimicrobial assay, MIC determination (EUCAST); type: cell-based; conditions: for Selectivity index EC50/MIC: MIC S. aureus; for MIC: S. aureus
Experimental: (§2) Bacterial strains were cultured overnight at 35–36 °C in blood agar plates. Minimum inhibitory concentrations (MICs) were determined according to previous reports and following protocols defined by the European Committee on Antimicrobial Susceptibility Testing (EUCAST). MICs against Candida albicans were determined using a similar protocol with some adaptations to the yeast growth and requirements. All tests were done in triplicate. [table]

[3] = tested on: Escherichia coli ATCC 25922; assay: Antimicrobial assay, MIC determination (EUCAST); type: cell-based; conditions: for Selectivity index EC50/MIC: MIC E. coli; for MIC: E. coli
Experimental: as §2

[4] = tested on: Pseudomonas aeruginosa ATCC 27853; assay: Antimicrobial assay, MIC determination (EUCAST); type: cell-based; conditions: for Selectivity index EC50/MIC: MIC P. aeruginosa; for MIC: P. aeruginosa
Experimental: as §2

[5] = tested on: Enterococcus faecalis ATCC 29212; assay: Antimicrobial assay, MIC determination (EUCAST); type: cell-based; conditions: for Selectivity index EC50/MIC: MIC E. faecalis; for MIC: E. faecalis
Experimental: as §2

Caco-2 cells [6] = assay: MTS cytotoxicity assay on Caco-2 cells; type: cell-based; conditions: Caco-2, concentration causing 50% reduction of viable cells, mean ± SD
Experimental: as §1

Calu-3 cells [7] = assay: MTS cytotoxicity assay on Calu-3 cells; type: cell-based; conditions: Calu-3, concentration causing 50% reduction of viable cells, mean ± SD
Experimental: as §1

Caco-2 cells [8] = assay: LDH release assay on Caco-2 cells; type: cell-based; conditions: Caco-2, concentration causing 50% LDH release, mean ± SD
Experimental: as §1

[9] = tested on: Candida albicans ATCC 24433; assay: Antimicrobial assay, MIC determination (adapted to yeast); type: cell-based; conditions: for MIC: C. albicans; for Selectivity index EC50/MIC: MIC C. albicans
Experimental: as §2

Calu-3 cells [10] = assay: LDH release assay on Calu-3 cells; type: cell-based; conditions: Calu-3, concentration causing 50% LDH release, mean ± SD
Experimental: as §1

[11] = Staphylococcus aureus, ATCC25923, read-out: MIC
[12] = Escherichia coli, ATCC25922, read-out: MIC
[13] = Pseudomonas aeruginosa, ATCC27853, read-out: MIC
[14] = Enterococcus faecalis, ATCC29212, read-out: MIC
[15] = Candida albicans, ATCC24433, read-out: MIC

| Compound | Haemolysis HC50 (erythrocytes) [mM] | 10^6 Γmax (surface excess concentration) [1] [mol/m^2] | Amin (area per molecule at water–air interface) [1] [A^2] | CMC [1] | γCMC (surface tension at CMC) [1] | Selectivity index EC50/MIC ([2]; EC50 from MTS assay on Caco-2) | Selectivity index EC50/MIC ([2]; EC50 from MTS assay on Calu-3) | MIC [2, 11] | Selectivity index EC50/MIC ([3]; EC50 from MTS assay on Caco-2) | Selectivity index EC50/MIC ([3]; EC50 from MTS assay on Calu-3) | MIC [3, 12] | Selectivity index EC50/MIC ([4]; EC50 from MTS assay on Caco-2) | Selectivity index EC50/MIC ([4]; EC50 from MTS assay on Calu-3) | MIC [4, 13] | Selectivity index EC50/MIC ([5]; EC50 from MTS assay on Caco-2) | Selectivity index EC50/MIC ([5]; EC50 from MTS assay on Calu-3) | MIC [5, 14] | EC50 (Caco-2 cells [6]; Homo sapiens) [µM] | Selectivity index EC50/MIC ([9]; EC50 from MTS assay on Caco-2) | Selectivity index EC50/MIC ([9]; EC50 from MTS assay on Calu-3) | further results |
| --- | --- | --- | --- | --- | --- | --- | --- | --- | --- | --- | --- | --- | --- | --- | --- | --- | --- | --- | --- | --- | --- |
| CCCCCCCCCCCCOC(=O)C(CC(C)C)[N+](C)(C)Cc1ccccc1 (stereo not shown) [C12 LEU BENZ] | 0.054 ± 0.004 | 6.10 ± 0.24 | 27.27 ± 1.34 | around 1 mM and 0.92 ± 0.11 mM | ~40 mN/m and 40.38 ± 0.13 mN/m | 1.5 | 1.0 | 4 µg/mL to 8 µg/mL and 10.6 µM | 0.3 | 0.2 | 32 µg/mL and 58.6 µM | 0.07 | 0.05 | 128 µg/mL and 235 µM | 1.5 | 1.0 | 4 µg/mL to 8 µg/mL and 10.6 µM | 16 ± 3 | 0.5 | 0.4 | EC50 (Calu-3 cells [7]; Homo sapiens): 11 ± 2 µM; EC50 (Caco-2 cells [8]; Homo sapiens): 19 ± 2 µM; MIC [9, 15]: 29.3 µM and 16 µg/mL; EC50 (Calu-3 cells [10]; Homo sapiens): 19 ± 3 µM |
| Benzalkonium chloride [BAC, reference compound] | 0.064 ± 0.004 | 5.35 ± 0.27 | 31.08 ± 1.60 | around 1 mM and 1.02 ± 0.06 mM | around 30 mN/m and 31.16 ± 0.05 mN/m | 11.5 | 7.7 | – | 2.9 | 1.9 | – | 0.4 | 0.2 | – | 11.5 | 7.7 | – | – | 2.9 | 1.9 | MIC [2]: 1 mg/L; MIC ([2]; read-out: MIC): 2.9 µM; MIC [3]: 4 mg/L; MIC ([3]; read-out: MIC): 11.5 µM; MIC [4]: 32 mg/L; MIC ([4]; read-out: MIC): 91.8 µM; MIC [5]: 1 mg/L; MIC ([5]; read-out: MIC): 2.9 µM; EC50 (Caco-2 cells [6]): 33 ± 1 µM; EC50 (Calu-3 cells [7]): 22 ± 5 µM; EC50 (Caco-2 cells [8]): 48 ± 4 µM; MIC [9]: 4 mg/L; MIC ([9]; read-out: MIC): 11.5 µM; EC50 (Calu-3 cells [10]): 29 ± 5 µM |
| CCCCCCCCCCOC(=O)C(CC(C)C)[N+](C)(C)Cc1ccccc1 (stereo not shown) [C10 LEU BENZ] | 0.148 ± 0.018 | 6.76 ± 0.22 | 24.09 ± 1.45 | 1.88 ± 0.16 mM | around 30 mN/m and 31.75 ± 0.09 mN/m | 42.1 | 30.8 | 2 µg/mL and 3.8 µM | 1.3 | 0.9 | 64 µg/mL and 124 µM | 0.6 | 0.5 | > 128 µg/mL and > 248 µM | – | 15.2 | 4 µg/mL and 7.7 µM | 160 ± 7 | 1.3 | 0.9 | EC50 (Calu-3 cells [7]; Homo sapiens): 117 ± 5 µM; EC50 (Caco-2 cells [8]; Homo sapiens): 158 ± 15 µM; MIC [9, 15]: 124 µM and 64 µg/mL; EC50 (Calu-3 cells [10]; Homo sapiens): 187 ± 24 µM |
| CCCCCCCCCCCCCCOC(=O)C(CC(C)C)[N+](C)(C)Cc1ccccc1 (stereo not shown) [C14 LEU BENZ] | 0.027 ± 0.006 | 7.39 ± 0.31 | 22.46 ± 1.11 | 0.12 ± 0.08 mM | ~40 mN/m and 40.35 ± 0.11 mN/m | 5 | 5.4 | 1 µg/mL to 2 µg/mL and 2.6 µM | 0.5 | 0.5 | 16 µg/mL and 27.9 µM | 0.06 | 0.06 | 128 µg/mL and 223 µM | 3.7 | 4.0 | 2 µg/mL and 3.5 µM | 13 ± 2 | 0.9 | 1.0 | EC50 (Calu-3 cells [7]; Homo sapiens): 14 ± 2 µM; EC50 (Caco-2 cells [8]; Homo sapiens): 12 ± 2 µM; MIC [9, 15]: 13.9 µM and 8 µg/mL; EC50 (Calu-3 cells [10]; Homo sapiens): 14 ± 2 µM |
